Measured values taken from the NIST ThermoML archive (doi:10.1021/acs.jced.5b00789).
Where “and” joins values, the source holds several entries; their conditions need not be identical. Equal entries are not always repeated. ± gives the expanded uncertainty stated by the source.

Details: Liquid

SMILES	mass density (343.2 K, 101.33 kPa)	mass density (353.2 K, 101.33 kPa)	mass density (363.2 K, 101.33 kPa)	mass density (373.2 K, 101.33 kPa)	mass density (293.2 K, 101.33 kPa)	mass density (303.2 K, 101.33 kPa)	mass density (313.2 K, 101.33 kPa)	mass density (323.2 K, 101.33 kPa)	mass density (333.2 K, 101.33 kPa)	mass density (293.2 K)	mass density (303.2 K)	mass density (313.2 K)	mass density (323.2 K)	mass density (333.2 K)	mass density (343.2 K)	mass density (353.2 K)	mass density (363.2 K)	mass density (373.2 K)
CCn1c2ccccc2c2ccccc21 [9-ethylcarbazole]	1062.78 ± 6.6 kg/m3 and 1062.93 ± 6.6 kg/m3 and 1063.05 ± 6.6 kg/m3	1055.37 ± 6.4 kg/m3 and 1055.51 ± 6.4 kg/m3 and 1055.63 ± 6.4 kg/m3	1048.06 ± 6.3 kg/m3 and 1048.2 ± 6.3 kg/m3 and 1048.32 ± 6.3 kg/m3	1040.99 ± 6.1 kg/m3 and 1041.11 ± 6.1 kg/m3 and 1040.85 ± 6.1 kg/m3														
CC1CCCCC1 [methylcyclohexane]	728.38 ± 9.1 kg/m3 and 728.56 ± 9.1 kg/m3 and 728.71 ± 9.1 kg/m3	720.64 ± 9.3 kg/m3 and 720.82 ± 9.3 kg/m3 and 720.97 ± 9.3 kg/m3	713.07 ± 9.4 kg/m3 and 713.24 ± 9.4 kg/m3 and 713.39 ± 9.4 kg/m3	705.65 ± 9.6 kg/m3 and 705.82 ± 9.6 kg/m3 and 705.96 ± 9.6 kg/m3	769.72 ± 8.2 kg/m3 and 769.91 ± 8.2 kg/m3 and 770.07 ± 8.2 kg/m3	761.08 ± 8.4 kg/m3 and 761.27 ± 8.4 kg/m3 and 761.42 ± 8.4 kg/m3	752.63 ± 8.6 kg/m3 and 752.82 ± 8.6 kg/m3 and 752.97 ± 8.6 kg/m3	744.55 ± 8.8 kg/m3 and 744.71 ± 8.7 kg/m3 and 744.37 ± 8.8 kg/m3	736.29 ± 8.9 kg/m3 and 736.47 ± 8.9 kg/m3 and 736.62 ± 8.9 kg/m3									
Cc1ccccc1 [toluene]										867.3 ± 6.3 kg/m3 and 867.61 ± 6.3 kg/m3 and 867.8 ± 6.3 kg/m3	855.63 ± 6.5 kg/m3 and 855.94 ± 6.5 kg/m3 and 856.12 ± 6.5 kg/m3	844.27 ± 6.8 kg/m3 and 844.57 ± 6.8 kg/m3 and 844.75 ± 6.8 kg/m3	833.51 ± 7 kg/m3 and 833.68 ± 7 kg/m3 and 833.21 ± 7 kg/m3	822.43 ± 7.2 kg/m3 and 822.73 ± 7.2 kg/m3 and 822.9 ± 7.2 kg/m3	811.93 ± 7.4 kg/m3 and 812.22 ± 7.4 kg/m3 and 812.39 ± 7.4 kg/m3	801.69 ± 7.6 kg/m3 and 801.98 ± 7.6 kg/m3 and 802.15 ± 7.6 kg/m3	791.71 ± 7.8 kg/m3 and 792 ± 7.8 kg/m3 and 792.16 ± 7.8 kg/m3	781.97 ± 8 kg/m3 and 782.26 ± 8 kg/m3 and 782.42 ± 8 kg/m3
